Test results reported in patent US20030220329A1, “Method of improving beta-adrenergic receptor function” (DUKE UNIVERSITY, priority 1999, published 2003).
Marks after values point to notes of the source that are not given here.

Tests used:
[1] = Fasting plasma glucose, insulin and leptin; format: in vivo, B6 mice; details: for Fasting plasma glucose: termination of / throughout the study
Procedure: (§1) Animals and Diets. Seventy-five 4-week old B6 male mice were obtained from Jackson Laboratories (Bar Harbor, Me.). The animals were housed 5 per cage in a temperature controlled (22° C.) room with a 12 hour light/dark cycle (lights off at 19:00). The HF and low fat (LF) experimental diets were manufactured by Research Diets (New Brunswick, N.J.), and contain 58% and 11% of calories from fat, respectively. The composition of these diets have been described in detail elsewhere (Surwit et al. Metabolism 44:645-651 (1995)). A group of 60 mice were fed the HF diet for the first four weeks of the study; the remaining 15 mice were fed the LF diet. The mice assigned to the LF diet were maintained on this diet throughout the study as a reference group of lean control mice. At week 4, all HF-fed mice were assigned to 4 groups of 15 mice each. The first group remained on the HF diet throughout the study as the “obese” control group. The remaining 3 groups of mice were fed the HF diet containing either the β3AR agonist CL316,243 (CL), diazoxide (Dz) or the combination of the two compounds (CLDz). The CL concentration in the diets was 1 mg/kg (0.001%). This dose had originally been recommended by Dr. Thomas Claus, of Lederle Laboratories and found to be differentially effective in reducing obesity in obesity-prone B6 and obesity-resistant A/J mice (Collins et al, Obes. Res. 43:83-86 5:6S (1997)). The Dz concentration in the diets was 3.2 g/kg (0.32%) was determined to be the maximally effective dose for weight-reduction in dose-response pilot studies.
Glucose, Insulin, and Leptin. Samples for analysis of insulin, glucose, and leptin were collected as previously reported (Surwit et al. Metabolism 44:645-651 (1995), Collins et al., Endocrinology 138:405-413 (1997)) at day 24 (4 days before the diets were changed), at day 32 (4 days after the change) and biweekly thereafter. In all cases, food was removed 8 hours before samples were collected. Glucose was analyzed by the glucose oxidase method (Beckman Glucose Analyzer II). Insulin and leptin concentrations were determined by double antibody radioimmunoassay (Linco Research, St. Louis. Mo.). The insulin assay was based on a rat standard and the leptin assay used a mouse standard.

[2] = Postprandial plasma triglycerides and non-esterified fatty acids; format: in vivo, B6 mice; details: at termination of the study, HF diet + drug for 4 weeks
Procedure: Animals and Diets. Seventy-five 4-week old B6 male mice were obtained from Jackson Laboratories (Bar Harbor, Me.). The animals were housed 5 per cage in a temperature controlled (22° C.) room with a 12 hour light/dark cycle (lights off at 19:00). The HF and low fat (LF) experimental diets were manufactured by Research Diets (New Brunswick, N.J.), and contain 58% and 11% of calories from fat, respectively. The composition of these diets have been described in detail elsewhere (Surwit et al. Metabolism 44:645-651 (1995)). A group of 60 mice were fed the HF diet for the first four weeks of the study; the remaining 15 mice were fed the LF diet. The mice assigned to the LF diet were maintained on this diet throughout the study as a reference group of lean control mice. At week 4, all HF-fed mice were assigned to 4 groups of 15 mice each. The first group remained on the HF diet throughout the study as the “obese” control group. […] The Dz concentration in the diets was 3.2 g/kg (0.32%) was determined to be the maximally effective dose for weight-reduction in dose-response pilot studies.
Triglycerides and Non-Esterified Fatty Acids. At the termination of the study, a postprandial plasma sample was collected and analyzed for triglyceride and non-esterified fatty acid (NEFA) concentrations using kits from WAKO Diagnostics (Richmond. Va.).

[3] = Fat pad weight and estimate of percent body fat; format: in vivo, B6 mice; details: wet weight after 4 weeks of drug treatment
Procedure: Animals and Diets. Seventy-five 4-week old B6 male mice were obtained from Jackson Laboratories (Bar Harbor, Me.). The animals were housed 5 per cage in a temperature controlled (22° C.) room with a 12 hour light/dark cycle (lights off at 19:00). The HF and low fat (LF) experimental diets were manufactured by Research Diets (New Brunswick, N.J.), and contain 58% and 11% of calories from fat, respectively. The composition of these diets have been described in detail elsewhere (Surwit et al. Metabolism 44:645-651 (1995)). A group of 60 mice were fed the HF diet for the first four weeks of the study; the remaining 15 mice were fed the LF diet. The mice assigned to the LF diet were maintained on this diet throughout the study as a reference group of lean control mice. At week 4, all HF-fed mice were assigned to 4 groups of 15 mice each. The first group remained on the HF diet throughout the study as the “obese” control group. […] This dose had originally been recommended by Dr. Thomas Claus, of Lederle Laboratories and found to be differentially effective in reducing obesity in obesity-prone B6 and obesity-resistant A/J mice (Collins et al, Obes. Res. 43:83-86 5:6S (1997)). The Dz concentration in the diets was 3.2 g/kg (0.32%) was determined to be the maximally effective dose for weight-reduction in dose-response pilot studies. Tissue Collection. After 4 weeks of drug treatment, a subset of 10 animals from each group was killed. […] Percent Body Fat. The percent body fat was estimated from the weight of the epididymal fat pad. It has been shown that, as a proportion of total body weight, the epididymal fat pad weight is highly correlated with percent body fat (Rogers et al, Brit. J. Nutr. 43:83-86 (1980), Eisen et al, Growth 45:100-107 (1981)).

[4] = system: glucose transport into white adipose tissue and muscle; assay: Glucose transport into adipose and muscle tissues (14C 2-deoxyglucose accumulation); format: in vivo, B6 mice; details: compared to HF control group
Procedure: as §1
Glucose Transport. Basal glucose transport into white adipose tissue and muscle was assessed following the method of Skillman and Fletcher (Skillman et al, Exp. Clin. Endocrinol. 87:288-298 (1986)) with minor modifications. Five mice from each group were injected i.p. with 50 mg/kg 2-deoxyglucose (20 μCi/kg ^14C 2-deoxyglucose) mixed with 2-deoxyglucose (final specific activity was 66 μCi/mmole). Twenty minutes later the mice were killed by cervical dislocation. […] The samples were neutralized with 1 M HCl and the ^14C content determined.

β3AR = biological target: T1, β3AR (Mus musculus, UniProt P25962); assay: β3AR-stimulated adenylyl cyclase activity in EWAT plasma membranes from treated animals; format: biochemical, B6 mice; details: membranes from treated HF-fed animals
T1 construct: from tissue
Procedure: (§2) Tissue Collection. After 4 weeks of drug treatment, a subset of 10 animals from each group was killed. The epididymal white adipose tissue (EWAT), retroperitoneal (RP) fat, interscapular brown adipose tissue (IBAT) fat pads and gastrocnemius muscle were removed, trimmed, washed, and all tissues were flash-frozen in liquid nitrogen and stored at −80° C. for later determination of β3AR, (EWAT) UCP1 expression (IBAT and RP), UCP2 and 3 expression (IBAT) as well as β3AR-stimulated adenylyl cyclase activity (EWAT).
Preparation of plasma membranes and adenylyl cyclase assay. Adipose tissue was isolated from each group of animals. The tissues from 4 mice per group were pooled and minced and then plasma membranes prepared as previously described (Collins et al, Mol. Endocrinol. 8:518-527 (1994)). Adenylyl cyclase activity was measured using established methods, and the cAMP formed was measured by RIA (Harper et al, J. Cyclic Nucleotide Res. 1:207-218 (1975)) using a polyclonal anti-serum to cAMP (Gettys et al, J. Biol. Chem. 266:15949-15955 (1991)). Protein concentrations were determined by the Bradford method (Bradford. Anal. Biochem 72:248-254 (1976)).

β3AR mRNA = assay: Northern blot, β3AR mRNA in EWAT; format: in vivo, B6 mice; details: normalized to cyclophilin
UCP1 mRNA = assay: Northern blot, UCP1 mRNA in IBAT and RP; format: in vivo, B6 mice; details: compared to the HF control
UCP3 = UCP3 expression in IBAT; format: in vivo; details: HF-fed B6 mice
Procedure: as §2
Isolation and Analysis of RNA. Total cellular RNA was prepared using the tissues of 6 mice per group by the cesium chloride gradient method as detailed (Chirgwin et al, Biochemistry 18:5294-5399 (1979)). For Northern blot hybridization, RNA was denatured by the glyoxal procedure, fractionated through 1.2% agarose gels, and blotted onto Biotrans (ICN) nylon membranes (Collins et al, J. Biol. Chem. 263:9067-9070 (1988)). […] A rat cDNA probe for cyclophilin was used as an internal hybridization/quantitation standard. Blots were hybridized and washed as previously described (Collins et al, Mol. Endocrinol. 8:518-527 (1994), (Thomas. Proc. Natl. Acad. Sci. USA 77:5201-5205 (1980)). The intensity of hybridization signals was quantified by PhosphorImager (ImageQuant/Storm) and normalized to the values for cyclophilin.

T1 sequence (P25962 whole entry): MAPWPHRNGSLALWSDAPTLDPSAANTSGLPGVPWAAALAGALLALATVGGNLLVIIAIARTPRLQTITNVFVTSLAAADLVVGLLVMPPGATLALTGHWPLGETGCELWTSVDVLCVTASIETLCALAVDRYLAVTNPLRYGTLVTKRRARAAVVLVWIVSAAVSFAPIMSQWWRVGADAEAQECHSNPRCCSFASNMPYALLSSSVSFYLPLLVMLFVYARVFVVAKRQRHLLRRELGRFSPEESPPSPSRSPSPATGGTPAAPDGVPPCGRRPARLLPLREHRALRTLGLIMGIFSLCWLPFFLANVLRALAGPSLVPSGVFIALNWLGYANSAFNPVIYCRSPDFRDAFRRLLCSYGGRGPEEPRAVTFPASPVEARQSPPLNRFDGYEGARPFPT

Row | Structure (SMILES) | Fasting plasma glucose ([1]; compared to pretreatment) | NEFA [2] | Epididymal Fat Pad Weight [3] | Retroperitoneal Fat Pad Weight [3] | Glucose transport into EWAT [4] | Glucose transport into RP ([4]; ANOVA trend p=0.07) | Adenylyl cyclase activity in response to CL in EWAT plasma membranes (β3AR) | β3AR mRNA levels in EWAT (β3AR mRNA) | UCP1 mRNA levels in IBAT (UCP1 mRNA) | Fasting plasma insulin ([1]; end of / throughout the study, compared to pretreatment) | Leptin ([1]; plasma, at the conclusion of the study, HF diet + drug for 4 weeks) | UCP3 expression in IBAT (UCP3)
1 | C[C@H](Cc1ccc2c(c1)OC(C(=O)[O-])(C(=O)[O-])O2)NC[C@H](O)c1cccc(Cl)c1.[Na+].[Na+] [CL, disodium (R,R)-5-[2[[2-(3-chlorophenyl)-2-hydroxyethyl]-amino]propyl]-1,3-benzodioxole-2,2-dicarboxylate] | returned to the pretreatment values | 0.69 +/− 0.04^b mEq/L | 0.943 +/− 0.129^b grams | 0.200 +/− 0.024^b grams | improved glucose transport into EWAT | enhanced glucose transport | a general decrease in adenylyl cyclase activity | failed to restore β3AR expression or function | greater increase in UCP1 expression | – | – | –
2 | CC1=NS(=O)(=O)c2cc(Cl)ccc2N1 [Dz, diazoxide] | remained lower than pretreatment levels throughout the study | 0.82 +/− 0.08^b mEq/L | 0.691 +/− 0.083^b,c grams | 0.123 +/− 0.014^b,c grams | did not reach a statistically significant level | – | restored the efficacy of the β3AR to stimulate adenylyl cyclase | levels comparable to the LF fed controls | greater increase in UCP1 expression | remained significantly below pretreatment levels throughout the study | 4.2 +/− 0.8^c ng/ml | significant increase in UCP3 expression in IBAT
